{
  "source": "paper PMC12446476",
  "about": "(Nature Communications, 2025)",
  "key": {"[1]": {"tested_on": "E. coli WP2 uvrA", "test": "Ames assay, E. coli strain", "format": "cell-based", "protocol": "Ames assays were performed using four strains of Salmonella typhimurium (TA1535, TA1537, TA98 and TA100) and a single strain of E. coli (WRP2 uvrA) in the presence and absence of S9 tissue homogenate. Dose levels (µg/plate) up to 4000 were assessed for WP2 uvrA and TA98, 500 for TA1535, 250 for TA1537 and 62.5 for TA100."}, "[2]": {"tested_on": "human lymphocytes", "test": "In vitro micronucleus test", "format": "cell-based"}},
  "note": "Where “and” joins values, the source holds several entries; their conditions need not be identical. Equal entries are not always repeated.",
  "data": [
    {"molecule": "Cc1c(CN(C)C(=O)/C=C/c2cnc3c(c2)N[C@H](C)[C@H](OP(=O)([O-])[O-])C(=O)N3)oc2ccccc12.[Na+].[Na+]", "note": "[Debio 1453 P]", "values": [
      {"measurement": "Ames bacterial mutation assessment, Mean", "setting": "[1]; with S9, 62.5 µg/plate", "result": 32},
      {"measurement": "Colony count", "setting": "[1]; with S9, 62.5 µg/plate", "result": "33 and 34 and 28"},
      {"measurement": "Ames bacterial mutation assessment, Mean", "setting": "[1]; with S9, 250 µg/plate", "result": 31},
      {"measurement": "Colony count", "setting": "[1]; with S9, 250 µg/plate", "result": "33 and 31 and 30"},
      {"measurement": "Ames bacterial mutation assessment, Mean", "setting": "[1]; with S9, 500 µg/plate", "result": 34},
      {"measurement": "Colony count", "setting": "[1]; with S9, 500 µg/plate", "result": "34 and 36 and 31"},
      {"measurement": "Ames bacterial mutation assessment, Mean", "setting": "[1]; with S9, 1000 µg/plate", "result": 28},
      {"measurement": "Colony count", "setting": "[1]; with S9, 1000 µg/plate", "result": "26 and 30 and 28"},
      {"measurement": "Ames bacterial mutation assessment, Mean", "setting": "[1]; with S9, 2000 µg/plate", "result": 26},
      {"measurement": "Colony count", "setting": "[1]; with S9, 2000 µg/plate", "result": "27 and 26 and 25"},
      {"measurement": "Ames bacterial mutation assessment, Mean", "setting": "[1]; with S9, 4000 µg/plate", "result": 25},
      {"measurement": "Colony count", "setting": "[1]; with S9, 4000 µg/plate", "result": "25 and 26 and 23"},
      {"measurement": "Ames bacterial mutation assessment, Mean", "setting": "[1]; without S9, 62.5 µg/plate", "result": 32},
      {"measurement": "Colony count", "setting": "[1]; without S9, 62.5 µg/plate", "result": "31 and 30 and 36"},
      {"measurement": "Ames bacterial mutation assessment, Mean", "setting": "[1]; without S9, 250 µg/plate", "result": 26},
      {"measurement": "Colony count", "setting": "[1]; without S9, 250 µg/plate", "result": "26 and 28 and 25"},
      {"measurement": "Ames bacterial mutation assessment, Mean", "setting": "[1]; without S9, 500 µg/plate", "result": 25},
      {"measurement": "Colony count", "setting": "[1]; without S9, 500 µg/plate", "result": "21 and 26 and 27"},
      {"measurement": "Ames bacterial mutation assessment, Mean", "setting": "[1]; without S9, 1000 µg/plate", "result": 24},
      {"measurement": "Colony count", "setting": "[1]; without S9, 1000 µg/plate", "result": "25 and 24"},
      {"measurement": "Ames bacterial mutation assessment, Mean", "setting": "[1]; without S9, 2000 µg/plate", "result": 24},
      {"measurement": "Colony count", "setting": "[1]; without S9, 2000 µg/plate", "result": "21 and 25"},
      {"measurement": "Ames bacterial mutation assessment, Mean", "setting": "[1]; without S9, 4000 µg/plate", "result": 22},
      {"measurement": "Colony count", "setting": "[1]; without S9, 4000 µg/plate", "result": "23 and 18 and 24"},
      {"measurement": "in vitro micronucleus test result", "setting": "[2]", "result": "negative"}
    ]}
  ]
}
